36 compounds from patent US20080004272A1, “Compositions and methods for modulating gated ion channels” (PainCeptor Pharma Corporation, priority 2006, published 2008) can be followed below.

Format in all cases: cell-based
For assay [1], the target named is T1, ASIC1a (Homo sapiens, UniProt P78348).
T1 sequence (P78348 1-528): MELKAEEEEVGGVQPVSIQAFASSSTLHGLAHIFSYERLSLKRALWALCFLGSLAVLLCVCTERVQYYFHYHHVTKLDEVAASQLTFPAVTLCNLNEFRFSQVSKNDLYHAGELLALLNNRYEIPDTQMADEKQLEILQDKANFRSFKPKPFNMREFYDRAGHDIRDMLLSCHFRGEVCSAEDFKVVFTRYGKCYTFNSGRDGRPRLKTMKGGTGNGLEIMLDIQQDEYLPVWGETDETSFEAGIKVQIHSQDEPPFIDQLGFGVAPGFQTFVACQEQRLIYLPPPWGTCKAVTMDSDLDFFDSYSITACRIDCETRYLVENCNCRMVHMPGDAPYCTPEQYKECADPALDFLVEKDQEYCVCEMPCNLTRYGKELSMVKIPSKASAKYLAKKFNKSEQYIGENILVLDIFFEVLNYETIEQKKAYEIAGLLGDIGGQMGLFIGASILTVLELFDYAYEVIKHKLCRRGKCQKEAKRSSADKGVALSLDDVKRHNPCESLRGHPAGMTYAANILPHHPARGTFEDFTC
The assay is described as follows: Calcium imaging of MES-induced calcium response (FlexStation, "Flex"). More on the design: host or cells: HEK293. Particulars: ASIC1a expressing HEK293 cells; for inhibition at 40 µM: read-out: % inh. at 40 μM (Flex). The protocol:
ASIC1a expressing HEK293 cells are grown in culture medium (DMEM with 10% FBS), in polystyrene culture flasks ([…]) at 37° C. in a humidified atmosphere of 5% CO2. Confluency of cells should be 80-90% on day of plating. Cells are rinsed with 10 ml of PBS and cells are re-suspended by addition of culture medium and trituration with a 25 ml pipette.
The cells are seeded at a density of approximately 1×10^6 cells/ml (100 μl/well) in black-walled, clear bottom, 96-well plates pre-treated with 10 mg/l poly-D-lysin (75 μl/well for ≧30 min). Plated cells are allowed to proliferate for 24 h before loading with dye.
Fluo-4/AM (1 mg, Molecular Probes) is dissolved in 912 μl DMSO. The Fluo-4/AM stock solution (1 mM) is diluted with culture medium to a final concentration of 2 μM (loading solution).
The culture medium is aspirated from the wells, and 50 μl of the Fluo-4/AM loading solution is added to each well. The cells are incubated at 37° C. for 30 min.
After the loading period, the loading solution is aspirated and the cells are washed twice with 100 μl modified Assay Buffer (145 mM NaCl, 5 mM KCl, 5 mM CaCl2, 1 mM MgCl2, 10 mM HEPES, pH 7.4) to remove extracellular dye. Following the second wash, 100 μl modified Assay Buffer is added to each well and the fluorescence is measured in FLIPR™ or FlexStation™ (Molecular Devices, USA), or any other suitable equipment known to the skilled in the art.
The MES-induced peak calcium response, in the presence of test substance, is expressed relatively to the MES response alone. Test substances that block the MES-induced calcium response are re-tested in triplicates. Confirmed hits are picked for further characterization by performing full dose-response curves to determine potency of each hit compound as represented by the IC50 values (i.e., the concentration of the test substance which inhibits 50% of the MES-induced calcium response).

Assay [2] concerns the target T1, ASIC1a. In words: Calcium imaging of MES-induced calcium response (FLIPR). More on the design: host or cells: HEK293. Conditions: ASIC1a expressing HEK293 cells, MES-induced calcium response; read-out: IC50 (FLIPR).
Assay [3] concerns the target T1, ASIC1a. In words: Two-electrode voltage clamp in Xenopus laevis oocytes (Xo), acid-induced currents. More on the design: expressed in transfected cells; host or cells: Xenopus laevis oocytes (nuclear microinjection of expression vector such as pcDNA3). Conditions: Xenopus oocytes; for inhibition at 50 µM: read-out: % inh. at 50 μM (Xo); for inhibition at 100 µM: read-out: % inh. at 100 μM (Xo). An outline of the steps: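 Defolliculated oocytes were nuclear-injected with channel cDNA and expressed for 2–4 days at 19 °C. Under two-electrode voltage clamp at room temperature, oocytes were superfused with pH 7.4 Ringer, and currents were evoked by switching to acidic MES Ringer (pH<7). Compound was present in both control and acidic solutions.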

One may read the IC50 as the concentration that gives 50% inhibition. Consider `CCN1CCc2c(-c3cc(C)ccc3C)cc3c(c2C1)NC(=O)/C3=N/O` [Compound 218], for which the IC50 on ASIC1a [1] is < 10 µM.
Still for that read-out and setting: to `CCOc1ccccc1-c1cc2c(c3c1CCN(CC)C3)NC(=O)/C2=N/O` [Compound 221] belongs < 10 µM.
Take `CCN(CC)Cc1cc(-c2cc(F)ccc2OC)cc2c1NC(=O)/C2=N/O` [Compound 183, 7-Diethylaminomethyl-5-(5-fluoro-2-methoxy-phenyl)-1H-indole-2,3-dione 3-oxime]: the inhibition at 40 µM on ASIC1a [1] (40 μM) is < 25%.
The same measure, in the same setting: the same measure for `CCN1CCc2c(-c3cccc(C)c3C)cc3c(c2C1)NC(=O)/C3=N/O` [Compound 217]: > 50%.
On the same count and under the same terms, to `CCOC(=O)Nc1ccc(-c2cc(F)ccc2OC)cc1CN(CC)CC` [Compound 212] belongs < 25%; to `COc1ccc(F)cc1-c1ccc2c(c1)COC(=O)N2` [Compound 187, 6-(5-Fluoro-2-methoxy-phenyl)-1,4-dihydro-benzo[d][1,3]oxazin-2-one], 25 to 45%.
Turning to `CCOC(=O)/C=N\c1ccc(-c2ccccc2)c2c1CN(C)CC2` [Compound 124], the IC50 at ASIC1a [2] is > 70 µM. Further, the inhibition at 50 µM at ASIC1a [3] is < 25%.
On the same counts, the results for `CC(C)(C)OC(=O)N1CCc2c(-c3ccccc3)ccc(C(N)=O)c2C1` [Compound 181] are > 70 µM and < 25%.
Turning to `CCN(CC)Cc1cc(-c2cc(F)ccc2OC)ccc1NC(=O)N(C)C` [Compound 215], the inhibition at 40 µM at ASIC1a [1] (40 μM) was < 25%.
On to `CN1CCc2c(-c3ccccc3)ccc(CNCC(=O)O)c2C1` [Compound 119], for which the IC50 at ASIC1a [2] was > 70 µM. Moreover, the inhibition at 50 µM on ASIC1a [3] was < 25%.
In the case of `CCN1CCc2c(-c3cc(C)cc(C)c3)cc3c(c2C1)NC(=O)/C3=N/O` [Compound 216], the IC50 at ASIC1a [1] was < 10 µM.
As to `CN1CCc2c(-c3ccccc3)ccc(NCC(=O)O)c2C1` [Compound 127], the IC50 at ASIC1a [2] is > 70 µM. In addition, on ASIC1a [3], the inhibition at 50 µM was < 25%.
In the same order, the values of `CN1CCc2c(-c3ccccc3)cc3c(c2C1)NC(=O)/C3=N/N` [Compound 102] are 20 to 40 µM and > 50%.
In the same order, the values of `CN1CCc2c(-c3ccccc3)cc3c(c2C1)NC(=O)/C3=C/c1ccc(O)cc1` [Compound 88] are > 70 µM and < 25%.
In the same order, the values of `CCOC(=O)CNCc1ccc(-c2ccccc2)c2c1CN(C)CC2` [Compound 118] are > 70 µM and < 25%.
As to `COC(=O)CC(=O)Nc1ccc(-c2ccccc2)c2c1CN(C)CC2` [Compound 137], the IC50 on ASIC1a [2] was > 70 µM. Also, the inhibition at 50 µM on ASIC1a [3] is < 25%.
With `CCOC(=O)C(=O)Nc1ccc(-c2ccccc2)c2c1CN(C)CC2` [Compound 162], the IC50 at ASIC1a [2] was > 70 µM. For the same compound, at ASIC1a [3], the inhibition at 50 µM was < 25%.
On the same counts, the results for `CN1CCc2c(-c3ccccc3)ccc(CN)c2C1` [Compound 115] are > 70 µM and < 25%.
On the same counts, the results for `CCOC(=O)CNc1ccc(-c2ccccc2)c2c1CN(C(=O)OCC)CC2` [Compound 140] are > 70 µM and < 25%.
Consider `CCOC(=O)N1CCc2c(Br)ccc([N+](=O)[O-])c2C1` [Compound 157], for which the IC50 on ASIC1a [2] is > 70 µM. For the same compound, the inhibition at 100 µM on ASIC1a [3] was > 50%.
On to `CCN(CC)Cc1cc(-c2cc(F)ccc2OC)ccc1NC(=O)N1CCOCC1` [Compound 214], for which, at ASIC1a [1] (40 μM), the inhibition at 40 µM was < 25%.
As to `CN1CCc2c(-c3ccccc3)ccc(NC(=O)OC(C)(C)C)c2C1` [Compound 129], on ASIC1a [2], the IC50 was 50 to 70 µM. On ASIC1a [3], the inhibition at 50 µM is < 25%.
Regarding `CCN(CC)Cc1cc(-c2cc(F)ccc2OC)cc2c1NC(=O)/C2=N/O` [Compound 213], the “% inh. at 40 μM (Flex)” value at ASIC1a [1] (40 μM) was <25% inhibition at 40 μM (Flex).
Regarding `CN1CCc2c(-c3ccccc3)cc3c(c2C1)NC(=O)/C3=N/NC(N)=S` [Compound 104], the IC50 at ASIC1a [2] is > 70 µM. Besides, at ASIC1a [3], the inhibition at 50 µM was 30 to 50%.
On the same counts, the results for `C/C=C1/C(=O)Nc2c1cc(-c1ccccc1)c1c2CN(C)CC1` [Compound 89] are > 70 µM and < 25%.
In the same order, the values of `CCOC(=O)CNCc1ccc(-c2ccccc2)c2c1CN(C(=O)OCC)CC2` [Compound 121] are > 70 µM and < 25%.
On the same counts, the results for `CN1CCc2c(-c3ccccc3)cc3c(c2C1)NCC31OCCO1` [Compound 77] are > 70 µM and < 25%.
Regarding `CCOC(=O)N1CCc2c(Br)ccc(N)c2C1` [Compound 160], the IC50 on ASIC1a [2] is > 70 µM. Further, the inhibition at 100 µM on ASIC1a [3] lay within 30 to 50%.
As for `COc1ccc(F)cc1-c1ccc(N)c(CO)c1` [Compound 186, (4-Amino-5′-fluoro-2′-methoxy-biphenyl-3-yl)-methanol], at ASIC1a [1] (40 μM), the inhibition at 40 µM is < 25%.
Consider `CCN1CCc2c(-c3cc(Cl)ccc3OC)cc3c(c2C1)NC(=O)/C3=N/O` [Compound 219], for which the IC50 on ASIC1a [1] was < 10 µM.
`CN1CCc2c(-c3ccccc3)cc3c(c2C1)NC(=O)/C3=C/c1cccc(C(=O)O)c1` [Compound 84]: the IC50 on ASIC1a [2] is > 70 µM. Besides, the inhibition at 50 µM at ASIC1a [3] is < 25%.
On the same counts, the results for `CN1CCc2c(-c3ccccc3)cc3c(c2C1)NC(=O)C3O` (centres unmarked) [Compound 79] are 20 to 40 µM and < 25%.
For the compound `CO/N=C1/C(=O)Nc2c1cc(-c1cc(F)ccc1OC)c1c2CN(C)CC1` [Compound 24], at ASIC1a [2], the IC50 lay in the range of 20 to 30 µM. Further, the inhibition at 50 µM on ASIC1a [3] fell in the range of 40 to 60%.
In the same order, the values of `CN1CCc2c(-c3ccccc3)cc(C(=O)O)c(N)c2C1` [Compound 141] are > 70 µM and < 25%.
Take `CCN1CCc2c(-c3ccccc3OC)cc3c(c2C1)NC(=O)/C3=N/O` [Compound 220]: the IC50 on ASIC1a [1] was < 10 µM.
Regarding `CN1CCc2c(-c3ccccc3)ccc(NCCC(=O)O)c2C1` [Compound 151], the IC50 at ASIC1a [2] is > 70 µM. Moreover, the inhibition at 50 µM at ASIC1a [3] is < 25%.
